From ChEMBL document CHEMBL4673395, “Discovery of PIPE-359, a Brain-Penetrant, Selective M Receptor Antagonist with Robust Efficacy in Murine MOG-EAE” (ACS Med Chem Lett, 2021) come the findings set out here.

Series [1] concerns the target T1, Muscarinic acetylcholine receptor M1 (Homo sapiens, UniProt P11229).
T1 sequence (P11229 whole entry): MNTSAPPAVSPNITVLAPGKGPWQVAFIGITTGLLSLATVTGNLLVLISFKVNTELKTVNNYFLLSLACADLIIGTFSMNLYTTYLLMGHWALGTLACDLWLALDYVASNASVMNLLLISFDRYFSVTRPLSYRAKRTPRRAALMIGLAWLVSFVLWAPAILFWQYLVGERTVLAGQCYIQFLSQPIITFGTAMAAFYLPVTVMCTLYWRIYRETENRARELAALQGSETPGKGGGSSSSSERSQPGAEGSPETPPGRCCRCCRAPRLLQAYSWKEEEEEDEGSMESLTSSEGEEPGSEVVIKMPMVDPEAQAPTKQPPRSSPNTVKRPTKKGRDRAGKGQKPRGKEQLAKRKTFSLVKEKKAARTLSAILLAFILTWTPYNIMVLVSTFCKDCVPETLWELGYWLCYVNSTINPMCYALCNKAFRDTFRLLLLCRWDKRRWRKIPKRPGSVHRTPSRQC
Kind of series: Antagonist activity at human recombinant muscarinic receptor M1 expressed in CHO-K1 cells assessed as EC80 acetylcholine-induced calcium flux incubated for 30 mins. Format: functional, cell-based.

A short description of series [2]: Metabolic stability in rat liver microsomes assessed as parent compound remaining at 1 uM measured at 15 mins by LC-MS/MS analysis. The series is classed as ADME, Microsome. To be noted: read-out: Stabilty. (Microsomes from liver hold many membrane-bound enzymes, among them those of drug oxidation.)
Series [3] concerns the target Cytochrome P450 2C9 (Homo sapiens, UniProt P11712). As to the kind of experiment: Inhibition of human CYP2C9 in pooled human liver microsomes using diclofenac as substrate incubated for 5 mins by LC-MS/MS. Format: ADME.
Series [4] in a line: Unbound clearance in rat at 10 mg/kg, po. The series is classed as ADME, organism-based. To be noted: in vivo.
Series [5] deals with Cytochrome P450 2D6 (Homo sapiens, UniProt P10635). Kind of series: Inhibition of human CYP2D6 in pooled human liver microsomes using dextromethorphan as substrate incubated for 20 mins by LC-MS/MS. Format: ADME.
Chain of Cytochrome P450 2D6 (P10635 whole entry): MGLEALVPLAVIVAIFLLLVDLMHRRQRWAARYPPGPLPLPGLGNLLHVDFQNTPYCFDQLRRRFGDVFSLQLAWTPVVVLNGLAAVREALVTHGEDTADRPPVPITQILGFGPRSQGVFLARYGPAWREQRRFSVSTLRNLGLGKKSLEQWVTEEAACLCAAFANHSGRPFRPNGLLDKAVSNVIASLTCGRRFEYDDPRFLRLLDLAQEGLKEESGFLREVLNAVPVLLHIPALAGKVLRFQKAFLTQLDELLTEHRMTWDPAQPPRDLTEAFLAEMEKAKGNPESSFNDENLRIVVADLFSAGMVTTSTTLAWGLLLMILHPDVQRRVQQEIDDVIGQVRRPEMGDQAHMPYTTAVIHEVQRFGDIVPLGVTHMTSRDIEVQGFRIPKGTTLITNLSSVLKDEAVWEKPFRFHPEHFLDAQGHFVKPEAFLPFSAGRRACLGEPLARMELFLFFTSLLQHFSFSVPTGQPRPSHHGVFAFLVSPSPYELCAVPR
Series [6] can be described thus: Oral bioavailability in rat at 10 mg/kg. The series is classed as ADME, organism-based. To be noted: in vivo.
Series [7] deals with Cytochrome P450 3A4 (Homo sapiens, UniProt P08684). Kind of series: Inhibition of human CYP3A4 in pooled human liver microsomes using midazolam as substrate incubated for 5 mins by LC-MS/MS. The series is classed as ADME.
Chain of Cytochrome P450 3A4 (P08684 whole entry): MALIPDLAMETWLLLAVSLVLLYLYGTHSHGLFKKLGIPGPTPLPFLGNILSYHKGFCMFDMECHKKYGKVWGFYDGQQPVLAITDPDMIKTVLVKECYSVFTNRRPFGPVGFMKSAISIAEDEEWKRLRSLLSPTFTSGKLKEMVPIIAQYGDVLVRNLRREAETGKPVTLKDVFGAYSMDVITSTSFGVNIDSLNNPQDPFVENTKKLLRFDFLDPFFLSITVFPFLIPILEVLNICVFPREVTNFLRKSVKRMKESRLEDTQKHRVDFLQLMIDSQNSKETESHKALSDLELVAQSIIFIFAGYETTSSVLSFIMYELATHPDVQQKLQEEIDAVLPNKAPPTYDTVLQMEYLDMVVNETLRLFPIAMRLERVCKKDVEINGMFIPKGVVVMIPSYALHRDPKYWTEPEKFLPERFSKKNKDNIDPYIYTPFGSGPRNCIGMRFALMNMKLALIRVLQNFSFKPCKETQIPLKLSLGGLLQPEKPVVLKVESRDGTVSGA
Series [8] is described as follows: AUC in rat at 2 mg/kg, iv. Format: ADME, organism-based. The arrangement: dose 2 mg/kg. Conditions: in vivo.
Series [9] is described as follows: Plasma protein binding in rat assessed as unbound fraction. The series is classed as ADME, cell-free.
The target in series [10] is T2, Muscarinic acetylcholine receptor M3 (Homo sapiens, UniProt P20309). Kind of series: Antagonist activity at human recombinant muscarinic receptor M3 expressed in CHO-K1 cells assessed as EC80 acetylcholine-induced calcium flux incubated for 30 mins. To be noted: read-out: IC50. The series is classed as functional, cell-based. In general terms: Calcium flux is commonly read through the fluorescence of an indicator in the cells.
T2 sequence (P20309 whole entry): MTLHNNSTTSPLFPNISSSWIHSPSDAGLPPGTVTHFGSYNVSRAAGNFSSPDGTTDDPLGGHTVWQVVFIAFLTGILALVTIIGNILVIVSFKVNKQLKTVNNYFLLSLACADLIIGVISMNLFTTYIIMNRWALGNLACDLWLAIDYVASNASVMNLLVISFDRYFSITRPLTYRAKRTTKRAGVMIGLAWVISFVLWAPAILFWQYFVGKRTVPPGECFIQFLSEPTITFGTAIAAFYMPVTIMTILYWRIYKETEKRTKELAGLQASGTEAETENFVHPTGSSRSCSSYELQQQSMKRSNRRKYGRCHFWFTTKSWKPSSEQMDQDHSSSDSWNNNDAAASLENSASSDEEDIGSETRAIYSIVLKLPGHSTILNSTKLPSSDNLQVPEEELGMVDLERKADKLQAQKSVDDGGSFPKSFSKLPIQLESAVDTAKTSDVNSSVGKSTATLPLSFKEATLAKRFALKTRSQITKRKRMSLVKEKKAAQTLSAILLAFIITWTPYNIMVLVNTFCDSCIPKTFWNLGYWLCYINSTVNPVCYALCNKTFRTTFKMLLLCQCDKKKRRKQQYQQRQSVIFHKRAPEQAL

A short description of series [11]: In vivo receptor occupancy at muscarinic M1 receptor in myelin oligodendrocyte glycoprotein (MOG)-induced experimental autoimmune encephalitis C57BL/6 mouse model assessed as decrease in occupancy at 30 mg/kg, po measured after 24 hrs. The series is classed as functional. The arrangement: Activity: scale not given: the % may be the effect or the level left.
Series [12] in a line: Metabolic stability in human liver microsomes assessed as intrinsic clearance at 1 uM measured up to 60 mins by LC-MS/MS analysis. The series is classed as ADME, Microsome. To be noted: read-out: CLH.
In series [13] the target is Muscarinic acetylcholine receptor M2 (Homo sapiens, UniProt P08172). As to the kind of experiment: Displacement of [3H]NMS from human recombinant muscarinic receptor M2 expressed in CHO-K1 cell membranes assessed as inhibition constant incubated for 1 hr by Radioligand binding assay.
The target of series [14] is T3, Muscarinic acetylcholine receptor M2 (Homo sapiens, UniProt P08172).
T3 sequence (P08172 whole entry): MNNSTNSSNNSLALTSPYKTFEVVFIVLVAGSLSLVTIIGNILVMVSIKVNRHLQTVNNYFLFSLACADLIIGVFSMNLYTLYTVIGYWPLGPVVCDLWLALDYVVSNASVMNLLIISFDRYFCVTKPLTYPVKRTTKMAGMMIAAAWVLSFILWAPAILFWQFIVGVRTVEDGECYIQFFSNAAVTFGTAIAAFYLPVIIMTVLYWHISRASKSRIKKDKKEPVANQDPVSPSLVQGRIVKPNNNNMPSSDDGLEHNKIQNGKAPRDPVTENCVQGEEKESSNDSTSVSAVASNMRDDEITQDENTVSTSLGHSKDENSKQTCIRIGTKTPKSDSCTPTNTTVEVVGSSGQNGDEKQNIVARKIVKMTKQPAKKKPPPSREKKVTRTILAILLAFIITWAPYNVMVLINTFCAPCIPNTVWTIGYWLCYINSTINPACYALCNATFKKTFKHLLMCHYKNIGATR
As to the kind of experiment: Antagonist activity at human recombinant muscarinic receptor M2 expressed in CHO-K1 cells assessed as EC80 acetylcholine-induced calcium flux incubated for 30 mins. Format: functional, cell-based. Conditions: read-out: IC50.

The target in series [15] is T2, Muscarinic acetylcholine receptor M3. Kind of series: Displacement of [3H]NMS from human recombinant muscarinic receptor M3 expressed in CHO-K1 cell membranes assessed as inhibition constant incubated for 1 hr by Radioligand binding assay. A general note: In a radioligand displacement assay an active substance lowers the binding of a labelled ligand.
The nature of series [16]: Fraction unbound in rat brain at 30 mg/kg, po measured after 24 hrs. Format: ADME, organism-based. To be noted: in vivo.
A short description of series [17]: Plasma protein binding in mouse assessed as unbound fraction. Format: ADME, cell-free.
The nature of series [18]: Clearance in rat at 2 mg/kg, iv. The series is classed as ADME, organism-based. To be noted: in vivo.
The nature of series [19]: Fraction unbound in rat plasma at 30 mg/kg, po measured after 24 hrs. Format: ADME, organism-based. Conditions: in vivo.
Series [20] in a line: Unbound fraction in rat brain at 10 mg/kg, po measured after 2 hrs by LC-MS/MS. The series is classed as ADME, organism-based. To be noted: in vivo.
Series [21] in a line: Half life in rat at 2 mg/kg, iv. Conditions: in vivo. The series is classed as ADME, organism-based.
Series [22] deals with Mus musculus. Kind of series: In vivo receptor occupancy at muscarinic M1 receptor in myelin oligodendrocyte glycoprotein (MOG)-induced experimental autoimmune encephalitis C57BL/6 mouse model assessed as decrease in occupancy at 30 mg/kg, po measured up to 8 hrs. Format: functional, organism-based. To be noted: time hrs <=8.
The nature of series [23]: Fraction unbound in rat plasma at 30 mg/kg, po measured after 8 hrs. The series is classed as ADME, organism-based. Conditions: in vivo.
Series [24] can be described thus: Metabolic stability in rat liver microsomes assessed as intrinsic clearance at 1 uM measured up to 60 mins by LC-MS/MS analysis. The series is classed as ADME, Microsome. To be noted: read-out: CLH.
The nature of series [25]: Apparant permeability across apical to basolateral side in dog MDCK-MDR1 cells. Format: ADME, cell-based, Canis lupus familiaris.
Series [26] is described as follows: Drug uptake in rat brain at 10 mg/kg, po measured after 2 hrs by LC-MS/MS. To be noted: read-out: Drug uptake. Format: ADME, organism-based.
The nature of series [27]: AUC in rat at 10 mg/kg, po. Format: ADME, organism-based. The arrangement: dose 10 mg/kg. To be noted: in vivo.
Series [28] is described as follows: Metabolic stability in mouse liver microsomes assessed as intrinsic clearance at 1 uM measured up to 60 mins by LC-MS/MS analysis. Format: ADME, Microsome. To be noted: read-out: CLH.
The target in series [29] is T1, Muscarinic acetylcholine receptor M1. Kind of series: Displacement of [3H]NMS from human recombinant muscarinic receptor M1 expressed in CHO-K1 cell membranes assessed as inhibition constant incubated for 1 hr by Radioligand binding assay.

The structures appear in SMILES notation. Active and inactive are the calls of the source.

Chain of Cytochrome P450 2C9 (P11712 whole entry): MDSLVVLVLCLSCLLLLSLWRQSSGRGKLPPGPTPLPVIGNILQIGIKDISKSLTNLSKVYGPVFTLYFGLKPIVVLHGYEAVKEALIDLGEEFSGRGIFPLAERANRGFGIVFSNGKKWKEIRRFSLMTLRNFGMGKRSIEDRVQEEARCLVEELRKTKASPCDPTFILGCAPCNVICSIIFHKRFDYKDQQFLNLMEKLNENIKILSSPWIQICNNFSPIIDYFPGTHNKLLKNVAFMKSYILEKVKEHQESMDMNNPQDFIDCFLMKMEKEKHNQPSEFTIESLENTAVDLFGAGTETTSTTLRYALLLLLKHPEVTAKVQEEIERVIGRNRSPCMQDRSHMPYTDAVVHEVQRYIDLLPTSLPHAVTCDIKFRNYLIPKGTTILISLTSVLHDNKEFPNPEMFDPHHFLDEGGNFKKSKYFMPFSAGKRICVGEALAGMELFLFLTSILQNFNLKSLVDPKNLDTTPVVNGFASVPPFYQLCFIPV

For `Cc1cc(F)cnc1N1CCN(C(=O)CCCc2cccc3cncnc23)[C@@H](C)C1`, the values for the IC50 in [1] (read-out: IC50) and in series [1] (read-out: pIC50 (converted)) were above 20 µM and above 10 µM, respectively.
Take `Cc1cc(F)cnc1N1CCN(C(=O)CCCS(=O)(=O)c2cccc3ncsc23)[C@@H](C)C1`: the IC50 in series [1] (read-out: IC50) turned out to be 1.9 µM.
For `COc1cc(N2CCN(C(=O)CCCc3cccc4ncccc34)CC2)ccn1`, the IC50 in [1] (read-out: IC50) is 0.3 µM.
Regarding `Cc1cc(F)cnc1N1CCN(C(=O)CNCc2cccc3ncsc23)[C@@H](C)C1`, in series [1] (read-out: IC50), the IC50 came to 3 µM.
For the compound `CC1CN(C(=O)CCS(=O)(=O)c2cccc3ncsc23)CCN1c1ccc(C#N)cn1` (racemic), in [1] (read-out: IC50), the IC50 came out at 0.0058 µM.
Consider `Cc1cc(F)cnc1N1CCN(C(=O)CCS(=O)(=O)c2cccc3ncsc23)[C@@H](C)C1`, for which, in series [1] (read-out: IC50), the IC50 was determined as 0.071 µM. Further, the remaining at 0.25 h, 1 µM in series [2] worked out at 9.6%.
In the case of `Cc1ccncc1N1CCN(C(=O)CCCc2cccc3ncccc23)[C@H](C)C1`, the IC50 in series [1] (read-out: IC50) came to 0.02 µM.
Take `O=C(CCCc1cccc2ncccc12)N1CC2CC1CN2c1ccc(F)cn1` (racemic): the IC50 in [1] (read-out: IC50) was 0.95 µM.
For `O=C(CCS(=O)(=O)c1cccc2ncsc12)N1CCN(c2ccnc(C(F)(F)F)c2)CC1`, the IC50 in series [1] (read-out: IC50) is 4.8 µM.
On to `Cc1cc(F)cnc1N1CCN(C(=O)CCCc2cccc3nc(N)sc23)[C@@H](C)C1`, for which the remaining at 0.25 h, 1 µM in series [2] is 3.7%.
Take `O=C(CCCc1cccc2ncccc12)N1CCN(c2ccncc2F)CC1`: the IC50 in [1] (read-out: IC50) was determined as 0.49 µM.
Same read-out and setting: with `N#Cc1ccc(N2CC3CCC2CN3C(=O)CCS(=O)(=O)c2cccc3ncsc23)nc1` (racemic) the figure was 0.025 µM.
Consider `Cc1cc(F)cnc1N1CCN(C(=O)CCCc2cccc3ncsc23)[C@@H](C)C1`, for which the IC50 in series [1] (read-out: IC50) came to 0.024 µM. For the same compound, the remaining at 0.25 h, 1 µM in [2] worked out at 5.3%.
Take `O=C(CCCc1cccc2ncccc12)N1CCN(c2ccncc2)CC1`: the IC50 in series [1] (read-out: IC50) is 0.024 µM.
Turning to `Cc1cc(F)cnc1N1CCN(C(=O)CCCc2cccc3ncncc23)[C@@H](C)C1`, in series [1] (read-out: IC50), the IC50 was 0.083 µM. Moreover, in [2], the remaining at 0.25 h, 1 µM was determined as 0%.
In the case of `C[C@@H]1CN(C(=O)CCS(=O)(=O)c2cccc3ncsc23)[C@@H](C)CN1c1ccc(C#N)cn1` (racemic), the IC50 in [1] (read-out: IC50) was determined as 0.33 µM.
Consider `O=C(CCS(=O)(=O)c1cccc2ncsc12)N1CCN(c2ccncc2F)CC1`, for which the IC50 in series [1] (read-out: IC50) stood at 0.38 µM. Also, in series [2], the remaining at 0.25 h, 1 µM was 29%.
For the compound `N#Cc1cc(N2CCN(C(=O)CCCc3cccc4ncccc34)CC2)ccn1`, the IC50 in [1] (read-out: IC50) amounted to 0.065 µM.
Regarding `C[C@@H]1CN(c2ccncc2Cl)CCN1C(=O)CCCc1cccc2ncccc12`, the IC50 in series [1] (read-out: IC50) amounted to 0.038 µM.
Take `N#Cc1ccc(N2C3CCC2CN(C(=O)CCS(=O)(=O)c2cccc4ncsc24)C3)nc1`: the IC50 in series [1] (read-out: IC50) was 0.0018 µM; in series [3] it was above 10 µM; in series [5] it was above 10 µM; in series [7], above 10 µM; in [10], 0.055 µM; in series [14], 0.2 µM. For the same compound, the CL free in [4] worked out at 16.4 L/h/kg. In addition, the bioavailability in [6] turned out to be 4.5%. Besides, the AUC in series [8] was determined as 0.1 µg·h/mL; in series [27], 0.021 µg·h/mL. Further, the fraction unbound in series [9] turned out to be 0.2; in series [17], 0.18. Also, the Activity in series [11] turned out to be 40%. Also, the microsomal CLint at 1 µM in series [12] came out at 42 µL/min/mg; in series [24] it was 23 µL/min/mg; in series [28] it was 21 µL/min/mg. Also, the Ki in series [13] was 0.019 µM; in [15], 0.00084 µM; in series [29], 0.00014 µM. Also, the entries for the “Drug uptake(free)” value in series [16] and in [20] were 0.12 nM and 3.4 nM, respectively. In addition, in [18], the clearance is 3.36 L/h/kg. Moreover, the “Cp(f)” value in [19] worked out at 0.0029 µM; in series [23] it was 0.117 µM. The compound also showed a half-life in series [21] of 54 min. Also, the Occ result in [22] is “Active”. Moreover, the Papp A→B in [25] amounted to 77 nm/s. Further, the concentration at 2 h in series [26] was found to be 0.026 µM.

Broadly, the bioavailability is the share of a dose that reaches the circulation, judged against a reference dose that is usually intravenous. In general, AUC refers to concentration integrated over time. As a reminder, the fraction unbound is the share of the substance not bound to proteins or other matrix. For orientation: Ki means a measure of affinity in units of concentration, obtained from inhibition or displacement. By clearance is commonly meant a measure of how efficiently the substance is removed, as volume per time. As usually defined, the half-life is the time needed for the level to fall by half in the phase considered. What is called Papp A→B is how fast a substance crosses the layer from the apical side.
